Measurements published in ChEMBL document CHEMBL1201862, “PubChem BioAssay data set” (2004).
Calls of active or inactive are those of the source.

How the values were obtained:
[1] = target: T1, Calpain-2 catalytic subunit (Sus scrofa, UniProt P43367); assay: m-calpain protease blockers, concentration series – biochemical, fluorogenic peptide substrate, dose response (AID 1420); format: functional
T1 sequence (P43367 whole entry): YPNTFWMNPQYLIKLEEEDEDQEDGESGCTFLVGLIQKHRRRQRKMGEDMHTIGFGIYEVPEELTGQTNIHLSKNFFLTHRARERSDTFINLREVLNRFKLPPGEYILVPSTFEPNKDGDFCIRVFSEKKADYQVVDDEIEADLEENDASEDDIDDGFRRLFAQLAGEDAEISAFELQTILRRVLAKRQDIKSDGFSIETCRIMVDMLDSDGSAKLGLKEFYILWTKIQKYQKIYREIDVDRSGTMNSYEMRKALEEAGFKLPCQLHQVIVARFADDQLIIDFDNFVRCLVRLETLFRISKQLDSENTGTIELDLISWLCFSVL

Aminopeptidase N = target: T2, Aminopeptidase N (Plasmodium falciparum FcB1/Columbia, UniProt O96935); assay: malaria alanyl aminopeptidase activity blockers – biochemical, fluorogenic H-Leu-NHMec substrate, 1536-well (AID 1445); parameters: species or system Plasmodium falciparum 3D7, 3D7
T2 sequence (O96935 whole entry): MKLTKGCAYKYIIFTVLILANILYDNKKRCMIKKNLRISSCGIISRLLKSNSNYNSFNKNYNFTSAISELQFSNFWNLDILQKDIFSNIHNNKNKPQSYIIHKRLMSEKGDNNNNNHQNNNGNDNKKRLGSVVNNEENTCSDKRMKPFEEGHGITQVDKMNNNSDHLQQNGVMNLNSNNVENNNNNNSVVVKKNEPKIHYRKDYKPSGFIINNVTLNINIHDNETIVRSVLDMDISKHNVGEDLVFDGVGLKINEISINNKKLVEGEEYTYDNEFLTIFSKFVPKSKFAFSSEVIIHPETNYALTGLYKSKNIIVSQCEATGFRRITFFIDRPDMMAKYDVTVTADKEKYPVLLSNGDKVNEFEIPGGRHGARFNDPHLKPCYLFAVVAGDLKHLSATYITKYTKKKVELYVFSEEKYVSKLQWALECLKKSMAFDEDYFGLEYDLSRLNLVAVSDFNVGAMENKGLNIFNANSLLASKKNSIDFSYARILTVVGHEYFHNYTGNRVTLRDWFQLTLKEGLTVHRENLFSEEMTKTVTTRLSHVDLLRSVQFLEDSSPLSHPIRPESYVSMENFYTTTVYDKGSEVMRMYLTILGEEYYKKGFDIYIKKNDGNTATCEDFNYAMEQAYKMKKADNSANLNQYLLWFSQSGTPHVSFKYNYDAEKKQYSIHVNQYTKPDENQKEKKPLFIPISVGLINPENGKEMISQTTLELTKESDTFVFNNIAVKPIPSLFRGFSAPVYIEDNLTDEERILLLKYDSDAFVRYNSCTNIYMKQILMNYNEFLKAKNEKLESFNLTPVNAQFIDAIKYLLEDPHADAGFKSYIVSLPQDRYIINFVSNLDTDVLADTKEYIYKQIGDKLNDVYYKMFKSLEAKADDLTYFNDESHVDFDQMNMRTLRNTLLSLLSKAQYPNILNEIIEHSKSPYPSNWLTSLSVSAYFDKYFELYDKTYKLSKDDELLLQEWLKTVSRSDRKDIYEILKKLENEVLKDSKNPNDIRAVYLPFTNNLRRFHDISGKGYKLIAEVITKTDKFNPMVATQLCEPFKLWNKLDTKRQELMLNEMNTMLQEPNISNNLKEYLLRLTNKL

[2] = Luminescence Cell-Based Dose Retest to Confirm Inhibitors of Cancer Stem Cells. [Related pubchem assays (depositor defined):AID2717, AID2721]; format: functional; conditions: Homo sapiens
[3] = target: T3, Short transient receptor potential channel 4 (Mus musculus, UniProt Q9QUQ5); assay: calcium entry via TRPC4 opening agents – cell-based, HEK293 TRPC4/mu-opioid, Fluo-4 calcium, dose response (AID 434937); format: functional
T3 sequence (Q9QUQ5 whole entry): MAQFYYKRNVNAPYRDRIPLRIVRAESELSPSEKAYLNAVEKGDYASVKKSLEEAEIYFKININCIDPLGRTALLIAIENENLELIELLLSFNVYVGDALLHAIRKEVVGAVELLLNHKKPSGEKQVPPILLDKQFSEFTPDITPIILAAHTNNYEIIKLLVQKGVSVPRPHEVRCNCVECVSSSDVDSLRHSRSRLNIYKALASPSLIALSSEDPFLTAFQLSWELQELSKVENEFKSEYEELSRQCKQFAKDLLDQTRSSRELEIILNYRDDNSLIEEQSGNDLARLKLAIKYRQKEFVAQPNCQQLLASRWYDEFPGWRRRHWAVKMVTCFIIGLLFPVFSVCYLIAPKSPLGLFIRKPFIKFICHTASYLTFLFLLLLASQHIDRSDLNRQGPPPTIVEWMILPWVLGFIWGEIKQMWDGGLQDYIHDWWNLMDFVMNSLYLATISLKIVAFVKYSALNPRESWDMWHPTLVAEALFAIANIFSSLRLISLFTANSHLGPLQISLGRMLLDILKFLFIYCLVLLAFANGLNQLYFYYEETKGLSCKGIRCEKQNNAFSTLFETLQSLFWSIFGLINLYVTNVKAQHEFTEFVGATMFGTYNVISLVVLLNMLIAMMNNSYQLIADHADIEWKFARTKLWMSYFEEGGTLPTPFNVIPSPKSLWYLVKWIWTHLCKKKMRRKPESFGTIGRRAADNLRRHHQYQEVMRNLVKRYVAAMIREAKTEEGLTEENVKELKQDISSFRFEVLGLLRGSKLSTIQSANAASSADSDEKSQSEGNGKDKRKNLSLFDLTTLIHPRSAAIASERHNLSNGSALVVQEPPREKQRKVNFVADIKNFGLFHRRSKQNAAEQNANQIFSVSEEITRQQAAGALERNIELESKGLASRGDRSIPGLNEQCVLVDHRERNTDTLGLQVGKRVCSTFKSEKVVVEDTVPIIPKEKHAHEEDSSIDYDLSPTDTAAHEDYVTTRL

[4] = off-target signal loss in HeLa-CEM21 co-culture – HeLa F-luc CTL cells, cherry-picked, counter-screen for HIV-1 Env fusion inhibitor project, dose response (AID 652040); format: functional, cell-based;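 further: potency for signal decrease marking cytotoxic or nonspecific inhibition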
[5] = NIH3T3 cell viability loss – ATP luminescence, mouse fibroblasts, counter-screen, dose response (AID 2010); format: functional, cell-based;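 further: cells exposed to compound for about 90 hours before reading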
[6] = Trypanosoma cruzi growth suppression in host cells – NIH3T3 host cells, beta-gal luminescence, confirmation (AID 2044); format: functional, cell-based;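 further: intracellular parasites grown in NIH/3T3 mouse fibroblasts as host cells; luminescent beta-galactosidase reporter signal from transgenic T. cruzi replicating inside host cells; inhibitors lower the luminescence signal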
Fatty acid synthase [7] = target: T4, Fatty acid synthase (Homo sapiens, UniProt P49327); assay: inhibition of human FAS-TE enzyme activity – biochemical, endpoint fluorescence intensity, uHTS hits, dose response (AID 624327); format: functional;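 further: fluorescence from hydrolysis of an O-methyl fluorescein acyl ester substrate by the enzyme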
[8] = blockers of HIV-1 envelope-mediated cell-cell fusion – cherry-pick, dose response (AID 652057); format: functional, cell-based
[9] = HIV-1 AD8 envelope cell-cell fusion blockers – cherry-pick, dose response (AID 652062); format: functional, cell-based;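 further: luciferase signal from cell-cell fusion driven by HIV-1 clade B AD8 Env; potency is for inhibitors of fusion seen as a drop in luminescence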
Fatty acid synthase [10] = target: T4, Fatty acid synthase; assay: inhibition of human FAS-TE enzyme activity – biochemical, kinetic fluorescence intensity, dose response (AID 624326); format: functional;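 further: rate of fluorescence rise from hydrolysis of a fluorogenic O-methyl fluorescein ester substrate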
[11] = target: T5, Zinc finger protein mex-5 (Caenorhabditis elegans, UniProt Q9XUB2); assay: potency of MEX-5 RNA-binding blockers – biochemical, C. elegans, fluorescence polarization, dose response (AID 1960)
T5 sequence (Q9XUB2 whole entry): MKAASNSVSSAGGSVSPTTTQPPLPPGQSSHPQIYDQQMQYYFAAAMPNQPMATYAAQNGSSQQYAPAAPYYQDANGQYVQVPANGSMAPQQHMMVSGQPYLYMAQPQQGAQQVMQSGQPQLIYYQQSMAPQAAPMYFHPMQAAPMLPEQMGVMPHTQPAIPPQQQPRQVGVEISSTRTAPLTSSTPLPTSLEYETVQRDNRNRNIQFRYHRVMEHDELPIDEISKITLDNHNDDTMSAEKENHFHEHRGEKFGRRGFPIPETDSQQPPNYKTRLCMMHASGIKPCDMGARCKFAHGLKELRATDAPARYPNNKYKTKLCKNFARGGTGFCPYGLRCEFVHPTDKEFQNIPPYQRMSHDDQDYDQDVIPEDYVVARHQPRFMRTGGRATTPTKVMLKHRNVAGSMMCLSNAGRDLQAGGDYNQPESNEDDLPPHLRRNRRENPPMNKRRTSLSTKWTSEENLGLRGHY

Genome polyprotein = Genome polyprotein (dengue virus type 2, UniProt P29990); assay: flavivirus cap methylation enzyme inhibition – biochemical, confirmation dose response, primary screen (AID 588689); format: functional
[12] = target: T6, RNA-binding protein pos-1 (Caenorhabditis elegans, UniProt G5EF15); assay: disruptors of C. elegans POS-1 RNA interaction – biochemical, fluorescence polarization, dose response (AID 1964);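 further: purified POS-1 fused to maltose binding protein made in E. coli; potency of compounds blocking POS-1 binding to fluorescent RNA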
T6 sequence (G5EF15 whole entry): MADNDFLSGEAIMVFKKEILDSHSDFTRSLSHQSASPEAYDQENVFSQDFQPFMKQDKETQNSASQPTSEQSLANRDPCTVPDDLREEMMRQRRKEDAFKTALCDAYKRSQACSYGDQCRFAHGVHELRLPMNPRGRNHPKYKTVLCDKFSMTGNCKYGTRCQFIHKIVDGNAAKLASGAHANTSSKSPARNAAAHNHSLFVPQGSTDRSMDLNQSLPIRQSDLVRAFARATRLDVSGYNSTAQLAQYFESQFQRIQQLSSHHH

[13] = target: Luciferin 4-monooxygenase (Photinus pyralis, UniProt P08659); assay: inhibition of purified Photinus pyralis luciferase – biochemical, luminescence, dose response (AID 1891)
[14] = Luminescence Cell-Based Dose Confirmation HTS to Identify Inhibitors of Platelet Dense Granule Release. [Related pubchem assays: 1663 (Primary HTS), 1678 (Summary of Project)]; format: functional
[15] = intracellular Trypanosoma cruzi inhibitors in host cells – cell-based, plate reader, cherry-pick samples, set 3, dose response (AID 651818); format: functional;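 further: compounds incubated with infected cells for about four days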

Sequence of Genome polyprotein (P29990 2492-3391 limits assumed): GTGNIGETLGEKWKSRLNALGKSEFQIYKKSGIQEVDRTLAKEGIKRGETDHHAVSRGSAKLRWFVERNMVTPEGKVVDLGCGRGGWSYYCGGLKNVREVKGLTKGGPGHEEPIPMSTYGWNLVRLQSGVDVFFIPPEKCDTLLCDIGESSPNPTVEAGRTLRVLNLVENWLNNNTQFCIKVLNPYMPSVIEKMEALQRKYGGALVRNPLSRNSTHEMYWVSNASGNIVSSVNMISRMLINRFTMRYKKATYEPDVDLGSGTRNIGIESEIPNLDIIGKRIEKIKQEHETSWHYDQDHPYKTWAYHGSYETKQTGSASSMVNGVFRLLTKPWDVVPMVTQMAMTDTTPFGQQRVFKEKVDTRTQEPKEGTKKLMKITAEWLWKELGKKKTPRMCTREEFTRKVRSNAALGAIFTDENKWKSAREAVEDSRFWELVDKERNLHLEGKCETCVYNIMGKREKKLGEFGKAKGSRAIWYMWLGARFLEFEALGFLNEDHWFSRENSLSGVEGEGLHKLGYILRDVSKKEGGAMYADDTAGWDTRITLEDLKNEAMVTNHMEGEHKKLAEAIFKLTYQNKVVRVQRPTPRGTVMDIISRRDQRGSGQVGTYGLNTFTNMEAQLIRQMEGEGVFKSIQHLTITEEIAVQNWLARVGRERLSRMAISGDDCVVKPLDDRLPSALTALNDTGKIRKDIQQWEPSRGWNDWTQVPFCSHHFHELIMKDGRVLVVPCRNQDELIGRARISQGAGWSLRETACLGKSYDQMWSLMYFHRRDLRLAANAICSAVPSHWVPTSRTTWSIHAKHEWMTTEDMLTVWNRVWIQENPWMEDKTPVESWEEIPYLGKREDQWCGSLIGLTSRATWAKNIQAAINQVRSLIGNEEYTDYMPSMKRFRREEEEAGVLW
T4 sequence (P49327 whole entry, the tested form may be a part): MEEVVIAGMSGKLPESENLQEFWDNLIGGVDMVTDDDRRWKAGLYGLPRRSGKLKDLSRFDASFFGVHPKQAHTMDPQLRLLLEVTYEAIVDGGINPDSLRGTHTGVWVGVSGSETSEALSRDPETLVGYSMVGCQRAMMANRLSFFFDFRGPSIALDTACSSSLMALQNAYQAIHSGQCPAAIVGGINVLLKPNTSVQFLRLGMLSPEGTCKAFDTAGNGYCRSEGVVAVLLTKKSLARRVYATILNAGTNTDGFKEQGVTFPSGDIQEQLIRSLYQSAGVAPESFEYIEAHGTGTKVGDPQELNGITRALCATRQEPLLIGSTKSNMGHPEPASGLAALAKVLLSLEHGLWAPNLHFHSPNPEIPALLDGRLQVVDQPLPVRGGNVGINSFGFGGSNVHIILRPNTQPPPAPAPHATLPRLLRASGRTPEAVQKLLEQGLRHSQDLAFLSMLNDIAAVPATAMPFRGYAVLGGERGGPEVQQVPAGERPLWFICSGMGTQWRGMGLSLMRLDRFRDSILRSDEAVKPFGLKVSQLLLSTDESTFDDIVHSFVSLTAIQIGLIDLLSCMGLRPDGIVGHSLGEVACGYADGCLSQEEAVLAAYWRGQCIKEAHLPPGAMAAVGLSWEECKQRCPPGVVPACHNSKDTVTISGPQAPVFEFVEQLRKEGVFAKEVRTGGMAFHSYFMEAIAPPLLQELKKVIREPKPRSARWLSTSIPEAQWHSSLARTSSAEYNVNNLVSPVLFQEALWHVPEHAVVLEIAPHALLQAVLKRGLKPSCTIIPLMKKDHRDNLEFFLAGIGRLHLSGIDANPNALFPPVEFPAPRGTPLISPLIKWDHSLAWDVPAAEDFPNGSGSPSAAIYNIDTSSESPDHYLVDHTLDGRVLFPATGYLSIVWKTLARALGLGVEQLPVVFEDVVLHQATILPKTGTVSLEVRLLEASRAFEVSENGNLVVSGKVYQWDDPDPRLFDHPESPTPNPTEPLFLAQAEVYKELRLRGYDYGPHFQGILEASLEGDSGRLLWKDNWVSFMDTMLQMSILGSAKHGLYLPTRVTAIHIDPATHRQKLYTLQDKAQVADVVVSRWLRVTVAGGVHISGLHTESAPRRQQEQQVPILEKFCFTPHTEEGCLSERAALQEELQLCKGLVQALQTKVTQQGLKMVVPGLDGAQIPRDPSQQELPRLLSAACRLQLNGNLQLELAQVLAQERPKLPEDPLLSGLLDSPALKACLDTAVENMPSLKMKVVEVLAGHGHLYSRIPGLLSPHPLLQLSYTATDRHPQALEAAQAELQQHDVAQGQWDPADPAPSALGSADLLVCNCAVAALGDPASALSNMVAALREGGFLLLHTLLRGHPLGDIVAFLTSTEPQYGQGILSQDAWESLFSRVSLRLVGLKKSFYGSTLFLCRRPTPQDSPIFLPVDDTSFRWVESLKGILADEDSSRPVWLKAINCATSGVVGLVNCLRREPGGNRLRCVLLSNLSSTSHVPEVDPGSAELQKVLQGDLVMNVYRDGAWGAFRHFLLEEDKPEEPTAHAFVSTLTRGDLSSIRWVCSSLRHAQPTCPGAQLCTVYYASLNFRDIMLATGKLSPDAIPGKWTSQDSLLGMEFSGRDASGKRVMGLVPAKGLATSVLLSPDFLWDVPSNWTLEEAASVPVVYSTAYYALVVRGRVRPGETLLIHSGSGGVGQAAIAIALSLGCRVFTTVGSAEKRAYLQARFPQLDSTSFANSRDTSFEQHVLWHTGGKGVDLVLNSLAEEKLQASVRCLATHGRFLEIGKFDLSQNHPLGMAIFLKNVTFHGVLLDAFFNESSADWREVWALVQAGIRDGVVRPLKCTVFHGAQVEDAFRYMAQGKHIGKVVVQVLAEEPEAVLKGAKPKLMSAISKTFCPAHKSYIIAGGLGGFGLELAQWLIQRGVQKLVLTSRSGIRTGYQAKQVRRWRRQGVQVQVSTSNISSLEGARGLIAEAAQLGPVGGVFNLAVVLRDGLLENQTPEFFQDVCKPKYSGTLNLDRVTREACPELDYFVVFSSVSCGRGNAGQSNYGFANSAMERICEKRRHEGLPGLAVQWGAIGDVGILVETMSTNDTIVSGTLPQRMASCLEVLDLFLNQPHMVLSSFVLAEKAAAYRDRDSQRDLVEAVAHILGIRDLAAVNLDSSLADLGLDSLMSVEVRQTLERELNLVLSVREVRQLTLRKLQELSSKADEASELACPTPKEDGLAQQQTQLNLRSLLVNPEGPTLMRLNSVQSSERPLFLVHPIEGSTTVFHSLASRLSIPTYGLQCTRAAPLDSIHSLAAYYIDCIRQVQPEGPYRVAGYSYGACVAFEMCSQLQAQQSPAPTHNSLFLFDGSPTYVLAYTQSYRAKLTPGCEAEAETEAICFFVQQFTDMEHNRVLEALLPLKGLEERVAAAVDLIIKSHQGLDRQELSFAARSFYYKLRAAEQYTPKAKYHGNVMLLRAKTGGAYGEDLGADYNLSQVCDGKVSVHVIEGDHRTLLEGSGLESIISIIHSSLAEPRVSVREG
Sequence of Luciferin 4-monooxygenase (P08659 whole entry): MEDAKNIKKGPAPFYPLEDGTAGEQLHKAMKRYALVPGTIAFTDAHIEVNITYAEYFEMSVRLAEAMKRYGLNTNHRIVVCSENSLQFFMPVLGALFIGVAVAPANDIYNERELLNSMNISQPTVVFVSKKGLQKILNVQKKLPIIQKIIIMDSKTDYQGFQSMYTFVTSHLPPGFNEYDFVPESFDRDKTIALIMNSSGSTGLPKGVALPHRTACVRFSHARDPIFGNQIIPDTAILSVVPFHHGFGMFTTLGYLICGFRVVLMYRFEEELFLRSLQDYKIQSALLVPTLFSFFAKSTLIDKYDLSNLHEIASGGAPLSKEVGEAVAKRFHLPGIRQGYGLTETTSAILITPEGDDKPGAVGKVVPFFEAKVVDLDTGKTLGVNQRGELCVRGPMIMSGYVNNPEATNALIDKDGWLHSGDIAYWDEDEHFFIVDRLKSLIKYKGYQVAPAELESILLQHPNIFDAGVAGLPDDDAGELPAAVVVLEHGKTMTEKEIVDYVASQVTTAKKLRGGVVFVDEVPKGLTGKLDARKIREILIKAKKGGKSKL

## COc1ccc(C2=Nn3c(nnc3-c3ccco3)SC2)cc1
[1]
  IC50: 9.61 µM (not active)

## COc1cc(OC)c(NS(=O)(=O)c2ccc(Cl)c(C(=O)OC(C)C(=O)N3CCCC3)c2)cc1Cl (centres undefined)
Aminopeptidase N
  IC50: 38.6 µM (active)

## Oc1ccc(C[C@@H]2CN=C(S)N2CCCCC2CCCCC2)cc1
[2]
  AC50: 5.41 µM (active)
[1]
  IC50: 12.2 µM (not active)

## O=C1c2ccc(Br)cc2C(=O)N1c1ccc(Cc2ccncc2)cc1
[1]
  IC50: 4.86 µM (not active)

## COc1ccc(C(CNC(=O)c2cccc(Br)c2)N2CCCC2)cc1 (centres undefined)
[3]
  EC50: 1.68 µM (active)

## CCOC(=O)NN1C(=O)c2ccccc2NC12CCCC2
Aminopeptidase N
  IC50: 32.6 µM (active)

## Cn1c(NCc2ccco2)nc2c1c(=O)n(Cc1ccc(Cl)c(Cl)c1)c(=O)n2C
[1]
  IC50: 4.09 µM (not active)

## Cc1c(O)ccc(C(=O)CN2C(=O)c3ccccc3C2=O)c1O
[1]
  IC50: 7.96 µM (not active)

## O=C1c2ccccc2C(=O)N1CCCCCc1nc(-c2ccccc2)no1
[1]
  IC50: 3.34 µM (not active)

## COc1ccc(C(=O)Nc2cc(C)ccc2NC(=O)COc2ccccc2)cc1
[1]
  IC50: 1.51 µM (not active)

## CS(=O)(=O)N1CCc2cc(-c3csc(NC(=O)Cc4cccs4)n3)ccc21
[4]
  AC50: 27.1 µM (active)
[5]
  EC50: > 60 µM (not active)
[6]
  EC50: 0.586 µM (active)
Fatty acid synthase [7]
  IC50: 6.53 µM (active)
[8]
  AC50: 27.1 µM (active)
[9]
  AC50: 9.65 µM (active)
Fatty acid synthase [10]
  IC50: 9.27 µM (active)

## O=C(NC1CCCCC1)NC1CCN(C(=S)NCc2ccco2)CC1
Aminopeptidase N
  IC50: 66.3 µM (active)

## Cc1cc(/C=C2\C(=O)NC(=O)N(c3ccccc3)C2=O)c(C)n1-c1ccc(C(=O)O)c(Cl)c1
[11]
  EC50: > 300 µM (not active)
Genome polyprotein
  IC50: 63.7 µM (active)
[12]
  EC50: > 300 µM (not active)

## CCN1CCN(c2ccc(S(=O)(=O)N3CCOCC3)cc2NC(=O)C(C)Oc2cccc(Cl)c2)CC1 (centres undefined)
[3]
  EC50: 5.96 µM (active)

## COc1ccc(C(CNC(=O)CN2C(=O)NC3(CCCC3)C2=O)N(C)C)cc1 (centres undefined)
[3]
  EC50: 3.76 µM (active)

## CCOC(=O)C(=CN=C(N)Nc1nc2ccccc2o1)C(=O)OCC
Aminopeptidase N
  IC50: 79.2 µM (active)

## O=C(NCCc1ccccn1)C(F)(F)C(F)(F)C(F)(F)C(F)(F)C(F)(F)C(F)F
[3]
  EC50: 4.73 µM (active)
[13]
  EC50: > 112 µM (not active)
[14]
  EC50: > 112 µM (not active)

## COc1ccc(C(=O)N2c3cc4c(cc3C(C)=CC2(C)C)OCO4)cc1
[1]
  IC50: 6.36 µM (not active)

## Cc1ccc(S(=O)(=O)Oc2ccccc2C=C2C(=O)NC(=O)NC2=O)cc1
Genome polyprotein
  IC50: 36.8 µM (active)

## O=C(O)CN1C(=O)/C(=C\c2ccccc2OCc2ccccc2)SC1=S
Genome polyprotein
  IC50: 35.8 µM (active)

## CCOc1cc(/C=N/NC2=NC(=O)C(CC(=O)O)S2)ccc1OS(=O)(=O)c1ccc(C)cc1 (centres undefined)
Aminopeptidase N
  IC50: 47.8 µM (active)

## Cc1ccc(S(=O)(=O)Nc2ccc3c(c2)CC(=O)N([C@@H](C)CO)C[C@@H](C)[C@@H](CN(C)Cc2ccc(C(F)(F)F)cc2)O3)cc1
[15]
  AC50: 2.03 µM (active)

## C[C@H]1CN([C@@H](C)CO)C(=O)Cc2cc(NC(=O)c3ccncc3)ccc2O[C@H]1CN(C)Cc1ccc(-c2ccccc2)cc1
[15]
  AC50: 1.63 µM (active)

## C[C@H]1CN([C@@H](C)CO)C(=O)Cc2cc(NC(=O)Cc3cn(C)c4ccccc34)ccc2O[C@H]1CN(C)Cc1ccc(C(F)(F)F)cc1
[15]
  AC50: 1.81 µM (active)

## C[C@H](CO)N1C[C@H](C)[C@H](CN(C)S(=O)(=O)c2ccccc2)Oc2ccc(NC(=O)Nc3ccc(C(F)(F)F)cc3)cc2C1=O
[15]
  AC50: 1.62 µM (active)

## C[C@@H]1CN([C@H](C)CO)C(=O)Cc2cc(N(C)C)ccc2O[C@H]1CN(C)Cc1ccc2c(c1)OCO2
[15]
  AC50: 6.22 µM (active)

## C[C@H]1CN([C@@H](C)CO)C(=O)Cc2cc(NC(=O)C3CC3)ccc2O[C@@H]1CN(C)Cc1ccc(C(=O)Nc2ccccc2N)cc1
[15]
  AC50: 3.59 µM (active)

## Cc1ccc(/C=N\NC(=O)C2COc3cc4ccccc4cc3O2)o1 (centres undefined)
[3]
  EC50: 1.88 µM (active)
